{
  "source": "patent US11530226B2",
  "about": "“Azepane inhibitors of menin-MLL interaction” (Janssen Pharmaceutica NV, priority 2016, dated 2022)",
  "key": {"MOLM14 cells (MLL-AF9)": {"tested_on": "MOLM14 cells (MLL-AF9)", "assay": "Proliferation assay (spheroid-like growth, 8 d, live-cell imaging), MOLM14", "assay_type": "cell-based, human", "conditions": "absolute IC50 from AUC of confluence, read-out: (3) Spheroid assay MOLM14 (IC50 (μM))", "protocol": "The anti-proliferative effect of menin/MLL protein/protein interaction inhibitor test compounds was assessed in human leukemia cell lines. The cell lines MV-4-1 1 and MOLM14 harbor MEL translocations and express the MEL fusion proteins MLL-AF4 and MLL-AF9, respectively, as well as the wildtype protein from the second allele. […] K562 was used as a control cell line containing two MLL wildtype alleles in order to exclude compounds that display general cytotoxic effects.\nMV-4-1 1 and MOLM14 were cultured in RPMI-1640 (Sigma Aldrich) supplemented with 10% fetal bovine serum (HyClone), 2 mM L-glutamine (Sigma Aldrich) and 50 μg/ml gentamycin (Gibco). K562 were propagated in RPMI-1640 (Sigma Aldrich) supplemented with 20% fetal bovine serum (HyClone), 2 mM L-glutamine (Sigma Aldrich) and 50 μg/ml gentamycin (Gibco).\nIn order to assess the anti-proliferative effects, 1,500 MV-4-1 1, 300 MOLM14 or 750 K562 cells were seeded in 200 μl media per well in 96-well round bottom, ultra-low attachment plates (Costar, catalogue number 7007). Cell seeding numbers were chosen based on growth curves to ensure linear growth throughout the experiment. Test compounds were added at different concentrations and the DMSO content was normalized to 0.3%>. Cells were incubated for 8d at 37° C. and 5% C02. Spheroid like growth was monitored in real-time by live-cell imaging (IncuCyteZOOM, Essenbio, 4× objective) acquiring one image every four hours for 8d. Confluence (%) as a measure of spheroid size was determined using an integrated analysis tool.\nIn order to determine the cumulative effect of the test compounds over time, the area under the curve (AUC) in a plot of confluence against time was calculated. Confluence at the beginning of the experiment (t=0) was used as baseline for the AUC calculation.\nAbsolute IC50 values were calculated according to the following procedure: % Control=(AUC sample/AUC control)*100 AUC control=mean AUC of control values(cells without compound/DMSO as vehicle control)\nA non-linear curve fit was applied using the least squares (ordinary) fit method to the plot of % control versus compound concentration. Based on this, the absolute IC50 value (half maximal inhibitory concentration of the test compound causing an anti-proliferative effect of 50% relative to the vehicle control) was calculated."}, "MV-4-1 1 cells (MLL-AF4)": {"tested_on": "MV-4-1 1 cells (MLL-AF4)", "assay": "Proliferation assay (spheroid-like growth, 8 d, live-cell imaging), MV-4-11", "assay_type": "cell-based, human", "conditions": "MV-4-11 cells, absolute IC50 from AUC of confluence, read-out: (3) Spheroid assay MV-4-11 (IC50 (μM))", "how_it_was_run": "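Cells seeded in ultra-low attachment wells (1,500 MV-4-11, 300 MOLM14, 750 K562) with compound, 0.3% DMSO, grown 8 d at 37° C. Confluence imaged every four hours; AUC of confluence versus time, relative to vehicle, fitted for absolute IC50.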"}, "[1]": {"target": "T1, terbium chelate-labeled menin / FITC-MBM1 peptide (Menin/MLL) (Homo sapiens, UniProt O00255, T541A)", "T1 construct": "Menin (a. a. l-610-6×his tag) was labeled with terbium cryptate as follows", "T1 sequence (O00255 with tags, fused parts or gaps T541A)": "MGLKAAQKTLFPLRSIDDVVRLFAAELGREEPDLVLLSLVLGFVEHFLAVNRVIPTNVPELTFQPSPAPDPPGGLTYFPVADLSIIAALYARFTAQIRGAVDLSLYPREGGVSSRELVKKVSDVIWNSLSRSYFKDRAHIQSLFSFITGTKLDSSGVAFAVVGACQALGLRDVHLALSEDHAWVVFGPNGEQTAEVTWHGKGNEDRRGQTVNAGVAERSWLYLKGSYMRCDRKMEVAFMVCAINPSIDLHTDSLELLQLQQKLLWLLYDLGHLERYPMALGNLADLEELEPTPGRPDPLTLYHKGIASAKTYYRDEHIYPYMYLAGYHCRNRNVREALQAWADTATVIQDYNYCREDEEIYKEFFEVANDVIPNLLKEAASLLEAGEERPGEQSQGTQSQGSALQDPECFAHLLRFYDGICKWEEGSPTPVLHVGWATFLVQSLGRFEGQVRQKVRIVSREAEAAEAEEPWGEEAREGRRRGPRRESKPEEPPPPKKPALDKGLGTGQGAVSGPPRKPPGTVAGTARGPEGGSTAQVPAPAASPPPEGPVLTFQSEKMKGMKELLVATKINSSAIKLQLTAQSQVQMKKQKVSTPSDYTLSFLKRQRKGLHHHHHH", "assay": "Menin/MLL homogenous time-resolved fluorescence (HTRF) assay", "assay_type": "binding", "conditions": "read-out: (2) Menin HTRF assay (IC50 (nM))", "how_it_was_run": "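Terbium cryptate-labeled menin (aa 1-610, 6×His), 100 pM, preincubated 5 min with compound, then 75 nM FITC-MBM1 peptide added for 15 min at ambient temperature. Buffer: 40 mM Tris pH 7.5, 50 mM NaCl, 1 mM DTT, 0.05% Pluronic F-127, 0.5% DMSO. HTRF 520/490 ratio; 11-point threefold titration from 25 μM, IC50 from % inhibition curve.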"}},
  "note": "Read-outs that look alike come from different tables or passages of the source.",
  "data": [
    {"smiles": "FC(F)(F)Cc1cc2c(N3CCC[C@@H](NCc4ccccc4)CC3)ncnc2s1", "note": "[Compound 3, (R)N-benzyl-1-(6-(2,2,2-trifluoroethyl)thieno[2,3-d]pyrimidin-4-yl)azepan-4-amine]", "values": [
      {"measurement": "IC50", "setting": "MOLM14 cells (MLL-AF9); Homo sapiens, MOLM-14, 192 h", "value": 3.1, "unit": "µM"},
      {"measurement": "IC50", "setting": "MV-4-1 1 cells (MLL-AF4); Homo sapiens, MV4-11, 192 h", "value": 0.44, "unit": "µM"},
      {"measurement": "IC50", "setting": "[1]", "value": 14, "unit": "nM"}
    ]},
    {"smiles": "CC(C)CNC1CCCN(c2ncnc3sc(CC(F)(F)F)cc23)CC1", "note": "(single isomer, unassigned) [Compound B1B, N-isobutyl-1-(6-(2,2,2-trifluoroethyl)thieno[2,3-d]pyrimidin-4-yl)azepan-4-amine]", "values": [
      {"measurement": "IC50", "setting": "MOLM14 cells (MLL-AF9)", "value": "> 15", "unit": "µM"},
      {"measurement": "IC50", "setting": "MV-4-1 1 cells (MLL-AF4)", "value": 8.9, "unit": "µM"},
      {"measurement": "IC50", "setting": "[1]", "value": 788, "unit": "nM"}
    ]},
    {"smiles": "FC(F)(F)Cc1cc2c(N3CCC[C@H](NCc4ccccc4)CC3)ncnc2s1", "note": "[Compound 4, (S)-N-benzyl-1-(6-(2,2,2-trifluoroethyl)thieno[2,3-d]pyrimidin-4-yl)azepan-4-amine]", "values": [
      {"measurement": "IC50", "setting": "MOLM14 cells (MLL-AF9); Homo sapiens, MOLM-14, 192 h", "value": 7.6, "unit": "µM"},
      {"measurement": "IC50", "setting": "MV-4-1 1 cells (MLL-AF4); Homo sapiens, MV4-11, 192 h", "value": 2.9, "unit": "µM"},
      {"measurement": "IC50", "setting": "[1]", "value": 330, "unit": "nM"}
    ]},
    {"smiles": "CC(C)CNC1CCCN(c2ncnc3sc(CC(F)(F)F)cc23)CC1", "note": "(single isomer, unassigned) [Compound B1A, N-isobutyl-1-(6-(2,2,2-trifluoroethyl)thieno[2,3-d]pyrimidin-4-yl)azepan-4-amine]", "values": [
      {"measurement": "IC50", "setting": "MOLM14 cells (MLL-AF9); Homo sapiens, MOLM-14, 192 h", "value": 11.3, "unit": "µM"},
      {"measurement": "IC50", "setting": "MV-4-1 1 cells (MLL-AF4)", "value": 2.5, "unit": "µM"},
      {"measurement": "IC50", "setting": "[1]", "value": 50, "unit": "nM"}
    ]}
  ]
}
